Assay results from patent US10590086B2, “Pharmaceutical compound” (IOmet Pharma Ltd., priority 2014, dated 2020).
Read-outs that look alike come from different tables or passages of the source.

What was measured:
[1] = biological target: TDO (Homo sapiens, UniProt P48775); experiment: A172 kynurenine cell-based assay; design: This assay utilised cancer cells which expressed either TDO or IDO; endogenous in cells; host or cells: A172 (human glioblastoma); details: A172 human glioblastoma cells, 48 hours, read-out: A172 Kynurenine cell based assay pIC50 (converted)
TDO, sequence (P48775 whole entry): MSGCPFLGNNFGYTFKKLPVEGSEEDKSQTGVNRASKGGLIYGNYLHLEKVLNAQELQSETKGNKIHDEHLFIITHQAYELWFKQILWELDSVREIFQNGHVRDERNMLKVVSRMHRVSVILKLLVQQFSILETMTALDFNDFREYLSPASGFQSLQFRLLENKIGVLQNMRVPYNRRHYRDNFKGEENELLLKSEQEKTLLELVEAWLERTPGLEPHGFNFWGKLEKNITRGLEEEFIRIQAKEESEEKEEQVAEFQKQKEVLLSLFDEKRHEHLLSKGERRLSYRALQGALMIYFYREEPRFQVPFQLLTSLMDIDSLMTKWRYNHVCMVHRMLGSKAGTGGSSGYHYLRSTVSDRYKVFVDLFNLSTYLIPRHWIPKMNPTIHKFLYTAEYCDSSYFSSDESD
Experimental: (§1) Exemplary compounds of the invention were prepared, and tested to determine their effect as TDO and/or IDO inhibitors. Two different assays were employed: 1. a cell-based assay for detecting the effect of test compounds on kynurenine production in two different cancer cell types. This assay utilised cancer cells which expressed either TDO or IDO and as such was used as a means of testing compound activity at these two enzymes in a cell-based context. 2. a TDO and IDO biochemical coupled assay which utilised recombinantly produced and purified TDO and IDO enzymes in combination with the enzyme formamidase. This coupled enzyme system allowed conversion of N-formylkynurenine produced by TDO or IDO activity to kynurenine which was then quantified by fluorescence following addition of Erhlich's Reagent The protocols for these are set out below.
(§2) Cell Based Assay for Detection of Kynurenine Produced by TDO and/or IDO
(§3) A172 (human glioblastoma) and SKOV3 (human ovarian adenocarcinoma) cells were seeded in a 96 well plate at 30,000 or 40,000 cells per well respectively in phenol red-free RPMI supplemented with 10% FCS, 2 mM L-glutamine and 500 μM L-tryptophan. IDO expression was induced in the SKOV3 cells by the addition of 500 ng/ml IFN-γ. Cells were incubated at 37° C. with or without the addition of test compound. After 48 hours, the cells were removed by centrifugation and Erhlich's reagent was added to the supernatant. The Erhlich's reagent was incubated for 5 minutes before the absorbance was read at 490 nm.

[2] = biological target: T1, IDO (Homo sapiens, UniProt P14902); experiment: SKOV3 kynurenine cell-based assay (IDO induced by IFN-γ); design: IDO expression was induced in the SKOV3 cells by the addition of 500 ng/ml IFN-γ; endogenous in cells; host or cells: SKOV3 (human ovarian adenocarcinoma), induced with IFN-γ; details: 48 hours, read-out: SKOV3 Kynurenine cell based assay pIC50 (converted)
T1 sequence (P14902 whole entry): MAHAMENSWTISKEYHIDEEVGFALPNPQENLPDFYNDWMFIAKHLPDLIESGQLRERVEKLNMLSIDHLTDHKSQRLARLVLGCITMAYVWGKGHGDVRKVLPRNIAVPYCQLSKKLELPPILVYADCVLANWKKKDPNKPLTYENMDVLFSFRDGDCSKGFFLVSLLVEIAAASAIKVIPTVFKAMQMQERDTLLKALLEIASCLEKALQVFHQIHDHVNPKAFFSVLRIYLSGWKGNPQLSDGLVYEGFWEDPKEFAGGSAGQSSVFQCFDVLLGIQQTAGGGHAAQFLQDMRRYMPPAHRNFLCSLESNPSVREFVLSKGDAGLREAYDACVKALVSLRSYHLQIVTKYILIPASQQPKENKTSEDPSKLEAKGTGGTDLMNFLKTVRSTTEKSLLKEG
Experimental: as §1, §2, §3

[3] = biological target: T1, IDO; experiment: hIDO biochemical coupled assay; details: 45 μM L-tryptophan, read-out: hIDO biochemical assay pIC50 (converted)
[4] = SKOV3 human ovarian adenocarcinoma cells, 500 ng/ml IFN-γ, 500 μM L-tryptophan

Compound	IC50 ([1]; 500 μM L-tryptophan) [µM]	IC50 [1] [µM]	IC50 ([2]; SKOV3 cells, IDO induced by 500 ng/ml IFN-γ) [µM]	IC50 [2, 4] [µM]	IC50 [3] [µM]	IC50 ([3]; 17 minutes, room temperature) [µM]
CC(=O)NC1CCC(c2cc(Cl)cc3[nH]ncc23)CC1 (mixture of isomers) [Compound 155, N-(4-(6-chloro-1H-indazol-4-yl)cyclohexyl) acetamide]	< 3.16	0.24	12.3	3.24 to 31.6	191	–
O=C(CO)N1CCC(c2cc(Cl)cc3[nH]ncc23)CC1 [Compound 167]	< 3.16	–	–	3.24 to 31.6	–	–
NC(=O)N1CCC(c2cc(Cl)cc3[nH]ncc23)CC1 [Compound 168]	< 3.16	–	–	3.24 to 31.6	–	–
CS(=O)(=O)N1CCN(c2cc(C3CCOCC3)cc3[nH]ncc23)CC1 [Compound 169]	3.24 to 31.6	–	–	> 100	–	–
CCC(=O)N1CCC(c2cc(Cl)cc3[nH]ncc23)CC1 [Compound 170]	< 3.16	–	–	3.24 to 31.6	–	–
CC1(C)CN(c2cc(-c3ncco3)cc3[nH]ncc23)CCN1S(C)(=O)=O [Compound 171]	3.24 to 31.6	–	–	> 100	–	–
CNS(=O)(=O)N1CCC(c2cc(Cl)cc3[nH]ncc23)CC1 [Compound 172]	< 3.16	–	–	3.24 to 31.6	–	–
CN(C)S(=O)(=O)N1CCC(c2cc(Cl)cc3[nH]ncc23)CC1 [Compound 173]	< 3.16	–	–	3.24 to 31.6	–	–
NS(=O)(=O)N1CCC(c2cc(Cl)cc3[nH]ncc23)CC1 [Compound 174]	< 3.16	–	–	3.24 to 31.6	–	–
CC1(C)CC(c2cc(Cl)cc3[nH]ncc23)CCN1S(C)(=O)=O (stereo not shown) [Compound 175]	< 3.16	–	–	3.24 to 31.6	–	–
COCC(=O)N1CCC(c2cc(Cl)cc3[nH]ncc23)CC1 [Compound 176]	< 3.16	–	–	3.24 to 31.6	–	–
CC(O)C(=O)N1CCC(c2cc(Cl)cc3[nH]ncc23)CC1 (stereo not shown) [Compound 177]	< 3.16	–	–	3.24 to 31.6	–	–
CS(=O)(=O)c1ccc(Nc2cc(Cl)cc3[nH]ncc23)cc1 [Compound 180]	3.24 to 31.6	–	–	32.4 to 100	–	–
CS(=O)(=O)N1CCN(c2cc(Cl)cc3[nH]ncc23)CC12CCC2 [Compound 181]	< 3.16	–	–	< 3.16	–	–
CC(=O)N1CCN(c2cc(Cl)cc3[nH]ncc23)CC12CCC2 [Compound 182]	< 3.16	–	–	3.24 to 31.6	–	–
CN1C(=O)NC(=O)C12CCN(c1cc(Cl)cc3[nH]ncc13)CC2 [Compound 184]	< 3.16	–	–	3.24 to 31.6	–	–
O=C1NC(=O)C2(CCN(c3cc(C(F)(F)F)cc4[nH]ncc34)CC2)N1 [Compound 185]	< 3.16	–	–	< 3.16	–	–
CS(=O)(=O)N1CCN(c2cc(C(F)(F)F)cc3[nH]ncc23)c2ccccc21 [Compound 186]	> 100	–	–	3.24 to 31.6	–	–
CC1(C)CC(c2cccc3[nH]ncc23)CCN1S(C)(=O)=O (stereo not shown) [Compound 187]	3.24 to 31.6	–	–	32.4 to 100	–	–

Compound	IC50 ([1]; 500 μM L-tryptophan) [µM]	IC50 [1] [µM]	IC50 ([2]; SKOV3 cells, IDO induced by 500 ng/ml IFN-γ) [µM]	IC50 [2, 4] [µM]	IC50 [3] [µM]	IC50 ([3]; 17 minutes, room temperature) [µM]
O=S(=O)(C1CC1)N1CCC(c2cc(Cl)cc3[nH]ncc23)CC1 [Compound 188]	< 3.16	–	–	3.24 to 31.6	–	–
O=C1NCCC12CCN(c1cc(Cl)cc3[nH]ncc13)CC2 [Compound 189]	3.24 to 31.6	–	–	3.24 to 31.6	–	–
CC(=O)N1CCC(c2cccc3[nH]ncc23)CC1(C)C (stereo not shown) [Compound 190]	< 3.16	–	–	3.24 to 31.6	–	–
CC(C)(O)C(=O)N1CCC(c2cc(Cl)cc3[nH]ncc23)CC1 [Compound 191]	< 3.16	–	–	> 100	–	–
CS(=O)(=O)NC1CCN(c2cc(Cl)cc3[nH]ncc23)C1 (stereo not shown) [Compound 193]	< 3.16	–	–	3.24 to 31.6	–	–
CS(=O)(=O)N1CCN(c2cc(C#N)cc3[nH]ncc23)CC1 [Compound 194]	3.24 to 31.6	–	–	3.24 to 31.6	–	–
O=C(N1CCC(c2cc(Cl)cc3[nH]ncc23)CC1)C1(O)CC1 [Compound 195]	< 3.16	–	–	3.24 to 31.6	–	–
C[C@@H]1CN(S(C)(=O)=O)CCN1c1cc(Cl)cc2[nH]ncc12 [Compound 197]	< 3.16	–	–	3.24 to 31.6	–	–
C[C@H]1CN(S(C)(=O)=O)CCN1c1cc(Cl)cc2[nH]ncc12 [Compound 200]	< 3.16	–	–	3.24 to 31.6	–	–
CC(=O)N1CC2CC1CN2c1cc(Cl)cc2[nH]ncc12 (stereo not shown) [Compound 201]	3.24 to 31.6	–	–	32.4 to 100	–	–
CS(=O)(=O)N1CC2CC1CN2c1cc(Cl)cc2[nH]ncc12 (stereo not shown) [Compound 202]	< 3.16	–	–	32.4 to 100	–	–
CS(=O)(=O)NC1CCC(c2cc(Cl)cc3[nH]ncc23)CC1 (stereo not shown) [Compound 203]	< 3.16	–	–	3.24 to 31.6	–	–
O=C(C1COC1)N1CCN(c2cc(Cl)cc3[nH]ncc23)CC1 [Compound 204]	< 3.16	–	–	> 100	–	–
O=C(C1COC1)N1CCC(c2cc(Cl)cc3[nH]ncc23)CC1 [Compound 205]	< 3.16	–	–	> 100	–	–
CS(=O)(=O)N1CCC(c2cc(N3CCOCC3)cc3[nH]ncc23)CC1 [Compound 206]	3.24 to 31.6	–	–	> 100	–	–
C[C@@H]1CN(S(C)(=O)=O)CCN1c1cc(C(F)(F)F)cc2[nH]ncc12 [Compound 208]	< 3.16	–	–	3.24 to 31.6	–	–
CS(=O)(=O)Nc1ccc(-c2cc(Cl)cc3[nH]ncc23)cc1 [Compound 220]	< 3.16	–	–	3.24 to 31.6	–	> 100
CS(=O)(=O)N1CCN(c2cc(OC(F)(F)F)cc3[nH]ncc23)CC1 [Compound 221]	3.24 to 31.6	–	–	32.4 to 100	–	> 100
CC(=O)N1CCC(c2cc(C(C)C)cc3[nH]ncc23)CC1 [Compound 222]	3.24 to 31.6	–	–	32.4 to 100	–	3.24 to 31.6

Compound	IC50 ([1]; 500 μM L-tryptophan) [µM]	IC50 [1] [µM]	IC50 ([2]; SKOV3 cells, IDO induced by 500 ng/ml IFN-γ) [µM]	IC50 [2, 4] [µM]	IC50 [3] [µM]	IC50 ([3]; 17 minutes, room temperature) [µM]
CC(C)c1cc(C2CCN(S(C)(=O)=O)CC2)c2cn[nH]c2c1 [Compound 223]	3.24 to 31.6	–	–	32.4 to 100	–	3.24 to 31.6
O=C1NC2(CCO1)CCN(c1cc(Cl)cc3[nH]ncc13)CC2 [Compound 224]	< 3.16	–	–	32.4 to 100	–	32.4 to 100
CN(C)C(=O)C1CCN(c2cc(Cl)cc3[nH]ncc23)CC1 [Compound 225]	3.24 to 31.6	–	–	3.24 to 31.6	–	3.24 to 31.6
CS(=O)(=O)NC1CCCN(c2cc(Cl)cc3[nH]ncc23)C1 (stereo not shown) [Compound 229]	3.24 to 31.6	–	–	32.4 to 100	–	> 100
CS(=O)(=O)N1CC2CCC1CN2c1cc(Cl)cc2[nH]ncc12 (stereo not shown) [Compound 230]	< 3.16	–	–	32.4 to 100	–	> 100
CC(=O)N1CC2CCC1CN2c1cc(Cl)cc2[nH]ncc12 (stereo not shown) [Compound 233]	< 3.16	–	–	3.24 to 31.6	–	32.4 to 100
COC(=O)C1CCN(c2cc(Cl)cc3[nH]ncc23)CC1 [Compound 234]	< 3.16	–	–	32.4 to 100	–	3.24 to 31.6
Clc1cc(N2CCC(c3ncc[nH]3)CC2)c2cn[nH]c2c1 [Compound 235]	< 3.16	–	–	3.24 to 31.6	–	> 100
CC(C)NC(=O)c1cc(Cl)cc2[nH]ncc12 [Compound 236]	32.4 to 100	–	–	32.4 to 100	–	> 100
O=C(NCc1ccccc1)c1cc(Cl)cc2[nH]ncc12 [Compound 237]	32.4 to 100	–	–	32.4 to 100	–	> 100
CC(C)CNC(=O)c1cc(Cl)cc2[nH]ncc12 [Compound 238]	3.24 to 31.6	–	–	32.4 to 100	–	> 100
CN(c1ccc(-c2cc(Cl)cc3[nH]ncc23)cc1)S(C)(=O)=O [Compound 239]	< 3.16	–	–	3.24 to 31.6	–	32.4 to 100
COC(=O)c1ccc(-c2cc(Cl)cc3[nH]ncc23)cc1 [Compound 240]	< 3.16	–	–	3.24 to 31.6	–	> 100
CNc1ccc(-c2cc(Cl)cc3[nH]ncc23)cn1 [Compound 241]	3.24 to 31.6	–	–	3.24 to 31.6	–	> 100
CN(C1CCCN(c2cc(Cl)cc3[nH]ncc23)C1)S(C)(=O)=O (stereo not shown) [Compound 242]	3.24 to 31.6	–	–	32.4 to 100	–	> 100
CN(C1CCN(c2cc(Cl)cc3[nH]ncc23)C1)S(C)(=O)=O (stereo not shown) [Compound 243]	< 3.16	–	–	3.24 to 31.6	–	32.4 to 100
CC(=O)N1CCN(c2cc(OC(F)(F)F)cc3[nH]ncc23)CC1 [Compound 244]	32.4 to 100	–	–	32.4 to 100	–	> 100
CN1C(=O)CCC12CCN(c1cc(Cl)cc3[nH]ncc13)CC2 [Compound 245]	< 3.16	–	–	3.24 to 31.6	–	3.24 to 31.6
